Measurements: US8242111B2, “Cyclic inhibitors of 11β-hydroxysteroid dehydrogenase 1” (Vitae Pharmaceuticals, Inc., priority 2008, dated 2012)

Tests used:
human 11β-HSD1 [1] = target: T1, human 11β-HSD1 (Homo sapiens, UniProt P28845); experiment: Biological Test Example 1: inhibition of a microsomal preparation of 11β-HSD1 (SPA); type: biochemical; settings: for inhibition at 0.1 µM: read-out: Average % inhibition at 100 nM
T1 construct: expressed in transfected cells; host or cells: CHO cells (microsomes)
T1 sequence (P28845 whole entry): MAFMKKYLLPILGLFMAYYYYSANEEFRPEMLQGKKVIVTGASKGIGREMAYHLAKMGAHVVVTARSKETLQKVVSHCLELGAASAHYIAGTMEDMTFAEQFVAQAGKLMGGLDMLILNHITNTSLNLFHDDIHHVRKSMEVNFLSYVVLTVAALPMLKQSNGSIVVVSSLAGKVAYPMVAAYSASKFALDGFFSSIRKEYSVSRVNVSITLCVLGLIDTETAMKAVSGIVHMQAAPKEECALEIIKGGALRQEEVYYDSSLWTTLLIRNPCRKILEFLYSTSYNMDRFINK

human 11β-HSD1 [2] = target: T1, human 11β-HSD1; experiment: Biological Test Example 4: inhibition of microsomal 11β-HSD1 in the presence of 50% human plasma; type: biochemical; settings: examples; for IC50: 50% human plasma; for Shift: IC50 in Biological Test Example 4 divided by IC50 in Biological Test Example 1
[3] = Biological Test Example 1, read-out: IC50 Range
[4] = Biological Test Example 1 IC50 (nM), examples
[5] = read-out: Biological Test Example 1 IC50, comparator compounds

| IC50 (human 11β-HSD1 [1]; [3]) [nM] | IC50 (human 11β-HSD1 [1]; [4]) [nM] | inhibition at 0.1 µM (human 11β-HSD1 [1]) [%] | IC50 (human 11β-HSD1 [2]) [µM] | Shift (human 11β-HSD1 [2]) | IC50 (human 11β-HSD1 [1]; [5]) [nM] | Compound |
| --- | --- | --- | --- | --- | --- | --- |
| < 100 | 22.6 | 77.8 | 0.21 | 9.3 |  | CC(C)(O)C[C@]1(c2ccccc2)CCN([C@H]2CCCN(c3ncccc3C(F)(F)F)C2)C(=O)O1 [Example 2, (S)-6-(2-hydroxy-2-methylpropyl)-6-phenyl-3-((S)-1-(3-(trifluoromethyl)pyridin-2-yl)piperidin-3-yl)-1,3-oxazinan-2-one] |
| < 100 | 4.4 | 91.3 | 0.0687 | 15.6 |  | CC(C)(O)C[C@]1(c2ccccc2)CCN([C@H]2CCCN(c3cc(C(F)(F)F)ccn3)C2)C(=O)O1 [Example 3, (S)-6-(2-hydroxy-2-methylpropyl)-6-phenyl-3-((S)-1-(4-(trifluoromethyl)pyridin-2-yl)piperidin-3-yl)-1,3-oxazinan-2-one] |
| < 100 | 4.1 | 89.8 | 0.0216 | 5.3 |  | CC(C)(O)C[C@]1(c2ccccc2)CCN([C@H]2CCCN(c3ccc(C(F)(F)F)cn3)C2)C(=O)O1 [Example 4, (S)-6-(2-hydroxy-2-methylpropyl)-6-phenyl-3-((S)-1-(5-(trifluoromethyl)Pyridin-2-yl)piperidin-3-yl)-1,3-oxazinan-2-one] |
| < 100 | 11.8 | 86 |  |  |  | CC(C)(O)C[C@]1(c2ccccc2)CCN([C@H]2CCCN(c3cccc(C(F)(F)F)n3)C2)C(=O)O1 [Example 5, (S)-6-(2-hydroxy-2-methylpropyl)-6-phenyl-3-((S)-1-(6-(trifluoromethyl)pyridin-2-yl)piperidin-3-yl)-1,3-oxazinan-2-one] |
| < 100 | 6.1 | 89.5 | 0.0148 | 2.4 |  | CC(C)(O)C[C@]1(c2ccccc2)CCN([C@H]2CCCN(c3ncc(F)cn3)C2)C(=O)O1 [Example 7, (S)-3-((S)-1-(5-fluoropyrimidin-2-yl)piperidin-3-yl)-6-(2-hydroxy-2-methylpropyl)-6-phenyl-1,3-oxazinan-2-one] |
| < 100 | 84.3 | 40.2 |  |  |  | Cc1cc(N2CCC[C@H](N3CC[C@](CC(C)(C)O)(c4ccccc4)OC3=O)C2)nc(C)n1 [Example 9, (S)-3-((S)-1-(2,6-dimethylpyrimidin-4-yl)piperidin-3-yl)-6-(2-hydroxy-2-methylpropyl)-6-phenyl-1,3-oxazinan-2-one] |
| < 100 | 5.5 | 85.8 | 0.0692 | 12.7 |  | COC(=O)c1cnc(N2CCC[C@H](N3CC[C@](CC(C)(C)O)(c4ccccc4)OC3=O)C2)nc1 [Example 10] |
| < 100 | 19.1 | 75.3 |  |  |  | CC(C)(O)C[C@]1(c2ccccc2)CCN([C@H]2CCCN(c3ccnc(C(F)(F)F)n3)C2)C(=O)O1 [Example 11, (S)-6-(2-hydroxy-2-methylpropyl)-6-phenyl-3-((S)-1-(2-(trifluoromethyl)pyrimidin-4-yl)piperidin-3-yl)-1,3-oxazinan-2-one] |
| < 100 | 3.5 | 93.8 | 0.0078 | 2.2 |  | CC(C)(O)C[C@]1(c2ccccc2)CCN([C@H]2CCN(c3ncc(Cl)cn3)C2)C(=O)O1 [Example 14, (S)-3-((S)-1-(5-chloropyrimidin-2-yl)pyrrolidin-3-yl)-6-(2-hydroxy-2-methylpropyl)-6-phenyl-1,3-oxazinan-2-one] |
| < 100 | 4.3 | 92.2 | 0.0376 | 8.7 |  | CC(C)(O)C[C@]1(c2ccccc2)CCN([C@H]2CCN(c3ccc(C(F)(F)F)cn3)C2)C(=O)O1 [Example 15, (S)-6-(2-hydroxy-2-methylpropyl)-6-phenyl-3-((S)-1-(5-(trifluoromethyl)pyridin-2-yl)pyrrolidin-3-yl)-1,3-oxazinan-2-one] |
| < 100 | 1.4 | 94.9 | 0.0144 | 10.0 |  | O=C1O[C@@](CCCO)(c2ccc(F)cc2)CCN1[C@H]1CCCN(c2ccc(C(F)(F)F)cn2)C1 [Example 16, (R)-6-(4-fluorophenyl)-6-(3-hydroxypropyl)-3-((S)-1-(5-(trifluoromethyl)pyridin-2-yl)piperidin-3-yl)-1,3-oxazinan-2-one] |
| < 100 |  | 94.7 |  |  |  | N#Cc1ccc(N2CCC[C@H](N3CC[C@](CCCO)(c4ccc(F)cc4)OC3=O)C2)nc1 [Example 17, 6((S)-3-((R)-6-(4-fluorophenyl)-6-(3-hydroxypropyl)-2-oxo-1,3-oxazinan-3-yl)piperidin-1-yl)nicotinonitrile] |
| < 100 | 26.4 | 81.6 |  |  |  | NC(=O)c1ccc(N2CCC[C@H](N3CC[C@](CCCO)(c4ccc(F)cc4)OC3=O)C2)nc1 [Example 18, 6-((S)-3-((R)-6-(4-fluorophenyl)-6-(3-hydroxypropyl)-2-oxo-1,3-oxazinan-3-yl)piperidin-1-yl)nicotinamide] |
| < 100 | 65.6 | 55.2 |  |  |  | CNC(=O)c1ccc(N2CCC[C@H](N3CC[C@](CCCO)(c4ccc(F)cc4)OC3=O)C2)nc1 [Example 19, 6-((S)-3-((R)-6-(4-fluorophenyl)-6-(3-hydroxypropyl)-2-oxo-1,3-oxazinan-3-yl)piperidin-1-yl)-N-methylnicotinamide] |
| < 100 | 27.4 | 72.5 |  |  |  | CN(C)C(=O)c1ccc(N2CCC[C@H](N3CC[C@](CCCO)(c4ccc(F)cc4)OC3=O)C2)nc1 [Example 20, 6-((S)-3-((R)-6-(4-fluorophenyl)-6-(3-hydroxpropyl)-2-oxo-1,3-oxazinan-3-yl)piperidin-1-yl)-N,N-dimethylnicotinamide] |
| < 100 | 5.8 | 94.1 | 0.0528 | 9.2 |  | CC(C)(O)C[C@]1(c2ccccc2)CCN([C@H]2CCN(c3nccc(C(F)(F)F)n3)C2)C(=O)O1 [Example 23, (S)-6-(2-hydroxy-2-methylpropyl)-6-phenyl-3-((S)-1-(4-(trifluoromethyl)pyrimidin-2-yl)pyrrolidin-3-yl)-1,3-oxazinan-2-one] |
| < 100 | 42.3 | 67.8 |  |  |  | COc1cnc(N2CC[C@H](N3CC[C@](CC(C)(C)O)(c4ccccc4)OC3=O)C2)nc1 [Example 24, (S)-6-(2-hydroxy-2-methylpropyl)-3-((S)-1-(5-methoxypyrimidin-2-yl)pyrrolidin-3-yl)-6-phenyl-1,3-oxazinan-2-one] |
|  |  |  |  |  | 0.99 | (S)-3-((S)-1-(5-fluoropyrimidin-2-yl)piperidin-3-yl)-6-(2-hydroxy-2-methylpropyl)-6-phenyl-1,3-oxazinan-2-one [Example 7] |
|  |  |  |  |  | 1.8 | (S)-6-(2-hydroxy-2-methylpropyl)-6-phenyl-3-((S)-1-(3-(trifluoromethyl)pyridin-2-yl)piperidin-3-yl)-1,3-oxazinan-2-one [Example 2] |
|  |  |  |  |  | 0.51 | (S)-6-(2-hydroxy-2-methylpropyl)-6-phenyl-3-((S)-1-(6-(trifluoromethyl)pyridin-2-yl)piperidin-3-yl)-1,3-oxazinan-2-one [Example 5] |

| Compound | IC50 (human 11β-HSD1 [1]; [3]) [nM] | IC50 (human 11β-HSD1 [1]; [4]) [nM] | inhibition at 0.1 µM (human 11β-HSD1 [1]) [%] | IC50 (human 11β-HSD1 [2]) [µM] | Shift (human 11β-HSD1 [2]) | IC50 (human 11β-HSD1 [1]; [5]) [nM] |
| --- | --- | --- | --- | --- | --- | --- |
| CC(C)(O)C[C@]1(c2ccccc2)CCN([C@H]2CCCN(c3ncccc3F)C2)C(=O)O1 [Example 1, (S)-3-((S)-1-(3-fluoropyridin-2-yl)piperidin-3-yl)-6-(2-hydroxy-2-methylpropyl)-6-phenyl-1,3-oxazinan-2-one] | < 100 | 12.7 | 85.5 |  |  |  |
| COc1cnc(N2CCC[C@H](N3CC[C@](CC(C)(C)O)(c4ccccc4)OC3=O)C2)nc1 [Example 12, (S)-6-(2-hydroxy-2-methylpropyl)-3-((S)-1-(5-methoxypyrimidin-2-yl)piperidin-3-yl)-6-phenyl-1,3-oxazinan-2-one] | < 100 | 4.3 | 91.7 | 0.0104 | 2.4 |  |
| Cc1cnc(N2CCC[C@H](N3CC[C@](CC(C)(C)O)(c4ccccc4)OC3=O)C2)s1 [Example 13, (S)-6-(2-hydroxy-2-methylpropyl)-3-((S)-1-(5-methylthiazol-2-yl)piperidin-3-yl)-6-phenyl-1,3-oxazinan-2-one] | < 100 | 13.5 | 90.4 |  |  |  |
| CC(C)(O)C[C@]1(c2ccccc2)CCN([C@H]2CCCN(c3ncc(C(=O)NC(C)(C)C)s3)C2)C(=O)O1 [Example 21, N-tert-butyl-2-((S)-3-((S)-6-(2-hydroxy-2-methylpropyl)-2-oxo-6-phenyl-1,3-oxazinan-3-yl)piperidin-1-yl)thiazole-5-carboxamide] | 190 | > 100 | 27.3 |  |  |  |
| Cc1nnc(N2CCC[C@H](N3CC[C@](CC(C)(C)O)(c4ccccc4)OC3=O)C2)cc1Cl [Example 22, (S)-3-((S)-1-(5-chloro-6-methylpyridazin-3-yl)piperidin-3-yl)-6-(2-hydroxy-2-methylpropyl)-6-phenyl-1,3-oxazinan-2-one] | 190 | > 100 | 20.9 |  |  |  |
| (S)-3-((S)-1-(3-fluoropyridin-2-yl)piperidin-3-yl)-6-(2-hydroxy-2-methylpropyl)-6-phenyl-1,3-oxazinan-2-one [Example 1] |  |  |  |  |  | 0.77 |
